Data taken from ChEMBL document CHEMBL1201862, “PubChem BioAssay data set” (2004).
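A five-concentration, 48-hour dose response in 96-well plates underlies each endpoint, interpolated linearly between surrounding concentrations. GI50 = concentration required for 50% inhibition of growth.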 The source made the active and inactive calls. Cut-off read from the data, not from the text of the source: active = GI50 up to about 1.1 µM and inactive = higher.

How the values were obtained:
Assay in all cases: NCI tumour cell line growth inhibition, 48 h
[1] = test system: 786-0
[2] = test system: A498
[3] = test system: A549
[4] = test system: ACHN
[5] = test system: BT-549
[6] = test system: CAKI-1
[7] = test system: CCRF-CEM
[8] = test system: COLO 205
[9] = test system: DU-145
[10] = test system: EKVX
[11] = test system: HCC 2998
[12] = test system: HCT-116
[13] = test system: HCT-15
[14] = test system: HL-60
[15] = test system: HOP-62
[16] = test system: HOP-92
[17] = test system: HT-29
[18] = test system: Hs-578T
[19] = test system: IGROV-1
[20] = test system: K562
[21] = test system: KM12
[22] = test system: LOX IMVI
[23] = test system: M14
[24] = test system: MCF7
[25] = test system: MDA-MB-231
[26] = test system: MDA-MB-435
[27] = test system: MDA-N
[28] = test system: MOLT-4
[29] = test system: Malme-3M
[30] = test system: NCI-H226
[31] = test system: NCI-H23
[32] = test system: NCI-H460
[33] = test system: NCI-H522
[34] = test system: NCI/ADR-RES
[35] = test system: OVCAR-3
[36] = test system: OVCAR-4
[37] = test system: OVCAR-5
[38] = test system: OVCAR-8
[39] = test system: PC-3
[40] = test system: RPMI-8226
[41] = test system: RXF 393
[42] = test system: SF-268
[43] = test system: SF-295
[44] = test system: SF-539
[45] = test system: SK-MEL-28
[46] = test system: SK-MEL-2
[47] = test system: SK-MEL-5
[48] = test system: SK-OV-3
[49] = test system: SN12C
[50] = test system: SNB-19
[51] = test system: SNB-75
[52] = test system: SR
[53] = test system: SW-620
[54] = test system: T47D
[55] = test system: TK-10
[56] = test system: U-251
[57] = test system: UACC-257
[58] = test system: UACC-62
[59] = test system: UO-31

**Q.** For `N#Cc1cc2c(cc1C#N)SCCSCCCSCCS2`, which GI50 [1] is on record?
**A.** 5.09 µM (inactive)

**Q.** And the GI50 [2]?
**A.** 40.8 µM (inactive)

**Q.** And the GI50 [3]?
**A.** > 83.9 µM (inactive)

**Q.** And the GI50 [4]?
**A.** 6.93 µM (inactive)

**Q.** What about the GI50 [5] of the same compound?
**A.** 15 µM (inactive)

**Q.** What about the GI50 [6] of the same compound?
**A.** 22.8 µM (inactive)

**Q.** And the GI50 [7]?
**A.** > 48.3 µM (inactive)

**Q.** And the GI50 [8]?
**A.** > 84.3 µM (inactive)

**Q.** And the GI50 [9]?
**A.** 56.5 µM (inactive)

**Q.** What about the GI50 [10] of the same compound?
**A.** > 48.9 µM (inactive)

**Q.** And the GI50 [11]?
**A.** > 72.4 µM (inactive)

**Q.** What about the GI50 [12] of the same compound?
**A.** 21.3 µM (inactive)

**Q.** And the GI50 [13]?
**A.** 14.6 µM

**Q.** And the GI50 [14]?
**A.** > 10 µM (inactive)

**Q.** And the GI50 [15]?
**A.** 1.71 µM (inactive)

**Q.** And the GI50 [16]?
**A.** 2.49 µM (inactive)

**Q.** And the GI50 [17]?
**A.** > 100 µM (inactive)

**Q.** What about the GI50 [18] of the same compound?
**A.** 3.96 µM (inactive)

**Q.** And the GI50 [19]?
**A.** 24.7 µM (inactive)

**Q.** What about the GI50 [20] of the same compound?
**A.** > 100 µM (inactive)

**Q.** And the GI50 [21]?
**A.** > 100 µM (inactive)

**Q.** And the GI50 [22]?
**A.** 6.31 µM (inactive)

**Q.** What about the GI50 [23] of the same compound?
**A.** 38.3 µM (inactive)

**Q.** What about the GI50 [24] of the same compound?
**A.** 28.2 µM (inactive)

**Q.** And the GI50 [25]?
**A.** 10 µM (inactive)

**Q.** And the GI50 [26]?
**A.** > 100 µM (inactive)

**Q.** And the GI50 [27]?
**A.** > 100 µM (inactive)

**Q.** And the GI50 [28]?
**A.** > 89.9 µM (inactive)

**Q.** What about the GI50 [29] of the same compound?
**A.** 20.1 µM (inactive)

**Q.** And the GI50 [30]?
**A.** 41.1 µM (inactive)

**Q.** And the GI50 [31]?
**A.** 16.1 µM (inactive)

**Q.** And the GI50 [32]?
**A.** 15.2 µM (inactive)

**Q.** And the GI50 [33]?
**A.** 25.8 µM (inactive)

**Q.** What about the GI50 [34] of the same compound?
**A.** 30.5 µM (inactive)

**Q.** And the GI50 [35]?
**A.** 25.2 µM (inactive)

**Q.** And the GI50 [36]?
**A.** 8.93 µM (inactive)

**Q.** And the GI50 [37]?
**A.** > 72.3 µM (inactive)

**Q.** What about the GI50 [38] of the same compound?
**A.** 12.2 µM (inactive)

**Q.** And the GI50 [39]?
**A.** 21.9 µM (inactive)

**Q.** What about the GI50 [40] of the same compound?
**A.** > 100 µM (inactive)

**Q.** And the GI50 [41]?
**A.** 5.92 µM (inactive)

**Q.** And the GI50 [42]?
**A.** 10.3 µM (inactive)

**Q.** And the GI50 [43]?
**A.** 5.47 µM (inactive)

**Q.** And the GI50 [44]?
**A.** 10.4 µM (inactive)

**Q.** What about the GI50 [45] of the same compound?
**A.** > 100 µM (inactive)

**Q.** And the GI50 [46]?
**A.** 17.8 µM (inactive)

**Q.** What about the GI50 [47] of the same compound?
**A.** > 100 µM (inactive)

**Q.** And the GI50 [48]?
**A.** 12 µM (inactive)

**Q.** And the GI50 [49]?
**A.** 41.9 µM (inactive)

**Q.** What about the GI50 [50] of the same compound?
**A.** 6.79 µM (inactive)

**Q.** What about the GI50 [51] of the same compound?
**A.** 4.61 µM (inactive)

**Q.** What about the GI50 [52] of the same compound?
**A.** 36.4 µM (inactive)

**Q.** And the GI50 [53]?
**A.** 29.4 µM (inactive)

**Q.** And the GI50 [54]?
**A.** 32.4 µM (inactive)

**Q.** And the GI50 [55]?
**A.** 2.82 µM (inactive)

**Q.** What about the GI50 [56] of the same compound?
**A.** 5.32 µM (inactive)

**Q.** And the GI50 [57]?
**A.** > 87.9 µM (inactive)

**Q.** What about the GI50 [58] of the same compound?
**A.** 9.93 µM (inactive)

**Q.** What about the GI50 [59] of the same compound?
**A.** > 53.3 µM (inactive)

**Q.** For `Clc1ccc(Nc2nc(Cl)c3nc[nH]c3n2)cc1Cl`, which GI50 [1] is on record?
**A.** 15.8 µM (inactive)

**Q.** And the GI50 [2]?
**A.** 18.4 µM (inactive)

**Q.** And the GI50 [3]?
**A.** 30.1 µM (inactive)

**Q.** And the GI50 [4]?
**A.** 24.9 µM (inactive)

**Q.** What about the GI50 [5] of the same compound?
**A.** 15.6 µM (inactive)

**Q.** What about the GI50 [6] of the same compound?
**A.** 3.29 µM (inactive)

**Q.** And the GI50 [7]?
**A.** 18.7 µM (inactive)

**Q.** What about the GI50 [8] of the same compound?
**A.** 18.6 µM (inactive)

**Q.** What about the GI50 [9] of the same compound?
**A.** 28.5 µM (inactive)

**Q.** And the GI50 [10]?
**A.** 1.97 µM (inactive)

**Q.** What about the GI50 [11] of the same compound?
**A.** 16.9 µM (inactive)

**Q.** And the GI50 [12]?
**A.** 29.5 µM (inactive)

**Q.** And the GI50 [13]?
**A.** 21 µM

**Q.** What about the GI50 [14] of the same compound?
**A.** 18.2 µM (inactive)

**Q.** And the GI50 [15]?
**A.** 15.9 µM (inactive)

**Q.** And the GI50 [16]?
**A.** 23.4 µM (inactive)

**Q.** What about the GI50 [17] of the same compound?
**A.** 18.2 µM (inactive)

**Q.** And the GI50 [18]?
**A.** 22.1 µM (inactive)

**Q.** What about the GI50 [19] of the same compound?
**A.** 22.2 µM (inactive)

**Q.** And the GI50 [20]?
**A.** 37.2 µM (inactive)

**Q.** And the GI50 [21]?
**A.** 18.1 µM (inactive)

**Q.** What about the GI50 [22] of the same compound?
**A.** 13.4 µM (inactive)

**Q.** And the GI50 [23]?
**A.** 36.7 µM (inactive)

**Q.** And the GI50 [24]?
**A.** 30.5 µM (inactive)

**Q.** What about the GI50 [25] of the same compound?
**A.** 21.1 µM (inactive)

**Q.** And the GI50 [26]?
**A.** 26.9 µM (inactive)

**Q.** What about the GI50 [27] of the same compound?
**A.** 39.8 µM (inactive)

**Q.** What about the GI50 [28] of the same compound?
**A.** 24 µM (inactive)

**Q.** And the GI50 [29]?
**A.** 32.3 µM (inactive)

**Q.** And the GI50 [30]?
**A.** 38.4 µM (inactive)

**Q.** And the GI50 [31]?
**A.** 25.4 µM (inactive)

**Q.** What about the GI50 [32] of the same compound?
**A.** 14.5 µM (inactive)

**Q.** And the GI50 [33]?
**A.** 18.7 µM (inactive)

**Q.** And the GI50 [34]?
**A.** 35.6 µM (inactive)

**Q.** What about the GI50 [35] of the same compound?
**A.** 19.1 µM (inactive)

**Q.** What about the GI50 [36] of the same compound?
**A.** 52.7 µM (inactive)

**Q.** What about the GI50 [37] of the same compound?
**A.** 48.8 µM (inactive)

**Q.** What about the GI50 [38] of the same compound?
**A.** 35.4 µM (inactive)

**Q.** What about the GI50 [39] of the same compound?
**A.** 14.7 µM (inactive)

**Q.** What about the GI50 [40] of the same compound?
**A.** 29 µM (inactive)

**Q.** What about the GI50 [41] of the same compound?
**A.** 21 µM (inactive)

**Q.** And the GI50 [42]?
**A.** 22.1 µM (inactive)

**Q.** What about the GI50 [43] of the same compound?
**A.** 23.7 µM (inactive)

**Q.** What about the GI50 [44] of the same compound?
**A.** > 10 µM (inactive)

**Q.** And the GI50 [46]?
**A.** 21.8 µM (inactive)

**Q.** What about the GI50 [47] of the same compound?
**A.** 20.1 µM (inactive)

**Q.** What about the GI50 [48] of the same compound?
**A.** 33.2 µM (inactive)

**Q.** And the GI50 [49]?
**A.** 43.8 µM (inactive)

**Q.** And the GI50 [50]?
**A.** 37.2 µM (inactive)

**Q.** And the GI50 [51]?
**A.** 18.8 µM (inactive)

**Q.** What about the GI50 [52] of the same compound?
**A.** 19.2 µM (inactive)

**Q.** And the GI50 [53]?
**A.** 38 µM (inactive)

**Q.** And the GI50 [54]?
**A.** 14.2 µM (inactive)

**Q.** And the GI50 [55]?
**A.** 32.4 µM (inactive)

**Q.** What about the GI50 [56] of the same compound?
**A.** 29.1 µM (inactive)

**Q.** What about the GI50 [57] of the same compound?
**A.** 31.8 µM (inactive)

**Q.** And the GI50 [58]?
**A.** 33.6 µM (inactive)

**Q.** What about the GI50 [59] of the same compound?
**A.** 26.9 µM (inactive)
